Results published in patent US20060052421A1, “Conjugation agent” (Eastman Kodak Company, priority 2004, published 2006).

Legend:
[1] = Aqueous stability: lifetime of the non-bonded conjugation agent (hydrolysis), followed by HPLC; type: physicochemical; settings: Table 2, neutral (pH 7) aqueous phosphate buffer, time for loss of about 66%
Experimental: (§1) The measures of thiol reactivities, thiol chemoselectivities, and aqueous stabilities were determined by the rate constants for the corresponding processes, i.e., relative rate constants for reaction with thiol-containing groups (thiol reactivity), the ratio of thiol to amine rate constants (chemoselectivity for thiol-containing groups), and the rate constant for decomposition of the non-bonded conjugation agent in an aqueous environment (aqueous stability). Equations used in the interpretation of kinetic experiments may be found in J. H. Espenson, Chemical Kinetics and Reaction Mechanisms; McGraw-Hill: New York, 1981.
(§2) The general structure of the conjugation agents used in Example 1 is shown below in formula V, and details of the structure for each conjugation agent are provided in Table 1. […] The selectivity is the ratio of krel(MESNA)/krel(Lys). The lifetime (τ) of a conjugation agent was measured as the time required for loss of about 66% of the starting amount in the solution of 80% phosphate buffer (pH 7)/20% acetonitrile. […] The progress of the reactions was followed by high performance liquid chromatography (HPLC) for up to 1 week. For lifetimes longer than about one week, the values were estimated based on the observed extent of decomposition, where possible. Conjugates labeled “I” are inventive; those labeled “C” are comparative. [drawing 21]
Selectivity values were generated using the lowest detection limit of the equipment as the value of krel(Lys).
(§3) The hydrolytic stability data was determined as the lifetime (r) as defined above, but in neutral (pH 7) aqueous phosphate buffer. Formulas for comparative conjugation agents C4-C10, and inventive conjugation agents I2-I6, are shown below. [drawing 22] [drawing 23]

[2] = Thiol reactivity: substitution reaction of the conjugation agent with MESNA, followed by HPLC; settings: for krel (MESNA): Table 2, water soluble conjugation agents, determined as for Table 1
Experimental: as §1
For the reactivity measurements, […] (MESNA) was used as the thiol-containing target, and lysine (Lys) was used as the amine target. The relevant reaction sequences are shown below, where LG is a leaving group, such as a halide, or alternatively a leaving group of the invention (Sx—Rs), such as an N-ethylmercaptotetrazolyl (EMT) group. All reactions were carried out at standard temperature and pressure. [drawing 20]
as §2, §3

[3] = Transamination of I7 with a lysine amide; settings: ambient temperature, pH 5.65
Description: Inventive conjugation agent I7 is an example of a conjugation agent designed to sequentially link a substrate containing amine groups, such as a support coated with gelatin, to a target containing thiol groups. [drawing 24] I7 was formed by conversion of the carboxylic acid functionality in I5 into a sulfosuccinate ester via standard procedures shown below in Example 3. This provided a functional group that was reactive towards amine groups. Near quantitative reaction of I7 with a corresponding lysine amide was conducted under transamination conditions (ambient temperature, pH 5.65, bimolecular rate constant for transamination, kbi=3.3 M^−1min^−1). This reaction was carried out under mildly acidic conditions to minimize the known competing hydrolysis of the sulfosuccinate ester. The resultant conjugate was called I8.

Structure (SMILES) | krel (MESNA) [2] | also measured
C=CS(=O)(=O)CS(=O)(=O)C=C [C9, bis(vinylsulfonyl)methane, reference compound] | 0.7 | Lifetime [1]: 0.75 days
CCN1C(=O)C=CC1=O [C10, N-ethylmaleimide, reference compound] | 24.3 | Lifetime [1]: 1 days
CCn1nnnc1Sc1cc(C(=O)NCCC(=O)O)c([N+](=O)[O-])cc1[N+](=O)[O-] [I3] | 0.1 | –
CCn1nnnc1Sc1c(C(=O)NCCC(=O)O)cc([N+](=O)[O-])cc1[N+](=O)[O-] [I4] | 0.4 | Reactivity towards thiol-containing groups relative to C6 ([2]; Table 2 data): 100 times
CCn1nnnc1Sc1c([N+](=O)[O-])cc(C(=O)NCCC(=O)O)cc1[N+](=O)[O-] [I5] | 1.0 | krel(thiol, I5)/krel(thiol, 12) ([2]; ratio of Table 2 krel values): about 125
CCn1nnnc1Sc1cc[n+](Cc2ccccc2)cc1 [I6] | 1.9 | Lifetime ([1]; nd = hydrolysis not detected): 24 days
CCn1nnnc1Sc1c([N+](=O)[O-])cc(C(=O)NCCC(=O)ON2C(=O)CC(S(=O)(=O)[O-])C2=O)cc1[N+](=O)[O-].[Na+] (stereo not drawn) [I7] | – | bimolecular rate constant for transamination, kbi [3]: 0.055 M⁻¹ s⁻¹
